# Assays:
# blackgrass = assay: Test E blackgrass; format: in vivo, Alopecurus myosuroides; conditions: Preemergence
# wheat = assay: Test B pre/postemergence wheat; format: in vivo, Triticum aestivum
# In short: (§1)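 Response is a visual 0-to-10 score relative to untreated plants, where 0 means no effect and 10 means complete control, taken twelve to sixteen days after application. Treatments went onto soil at planting and onto foliage of 1- to 4-leaf plants, using a surfactant-containing non-phytotoxic solvent.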
# rice = assay: Test B flood test rice; format: in vivo, Oryza sativa
# In short: (§2)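 Read-out is a visual response score from 0 (no effect) to 10 (complete control), assigned by comparison with untreated controls. Treatment was applied at the 2-leaf stage, and plants stayed in the greenhouse for twelve to sixteen days before scoring.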
# Alexandergrass = assay: Test D Alexandergrass; format: in vivo, Brachiaria plantaginea; conditions: Preemergence, 0 to 100 scale
# In short: (§3)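 Herbicide screen in the greenhouse. A non-phytotoxic solvent mixture with surfactant carried the test chemical; in pre-emergence tests it went onto the soil of pots seeded no more than a day earlier. Injury was scored by eye 14 to 21 days after application, 0 to 100.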
# winter wheat [1] = assay: Test E winter wheat; format: in vivo, Triticum aestivum; conditions: Postemergence; for Plant response rating, Wheat (winter): 0 to 100 scale
# In short: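 Postemergence: 60:40 sandy loam/greenhouse potting mix, 1- to 4-leaf stage. Formulation: solvent plus surfactant. Assessment: visual comparison with untreated controls at ~21–28 days.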
# Italian ryegrass = assay: Test E Italian ryegrass; format: in vivo, Lolium multiflorum; conditions: Preemergence
# winter wheat [2] = assay: Test E winter wheat; format: in vivo, Triticum aestivum; conditions: Preemergence
# green foxtail = assay: Test E green foxtail; format: in vivo, Setaria viridis; conditions: Preemergence
# bedstraw = assay: Test B pre/postemergence bedstraw; format: in vivo, Galium aparine
# In short: as §1
# dallisgrass = assay: Test D dallisgrass; format: in vivo, Paspalum dilatatum; conditions: Preemergence, 0 to 100 scale
# In short: as §3
# winter barley = assay: Test E winter barley; format: in vivo, Hordeum vulgare; conditions: Preemergence
# wild oat = assay: Test E wild oat; format: in vivo, Avena fatua; conditions: Preemergence
# duck salad = assay: Test B flood test duck salad; format: in vivo, Heteranthera limosa
# In short: as §2
# common ragweed = assay: Test D common ragweed; format: in vivo, Ambrosia elatior; conditions: Preemergence, 0 to 100 scale
# In short: as §3
# goosegrass = assay: Test D goosegrass; format: in vivo, Eleusine indica; conditions: Preemergence, 0 to 100 scale
# In short: as §3
# [3] = Rate 31 g/ha, 0 to 100 scale, 0 no effect, 100 complete control
# [4] = Rate 62 g/ha, 0 to 100 scale, 0 no effect, 100 complete control
# [5] = Rate 125 g/ha, 0 to 100 scale (0 no effect, 100 complete control)
# [6] = Rate 500 g/ha, 0 to 100 scale where 0 is no effect and 100 is complete control
# [7] = Preemergence, Rate 62 g/ha, scale of 0 to 10 where 0 is no effect and 10 is complete control
# [8] = Preemergence, Rate 250 g/ha, scale of 0 to 10 where 0 is no effect and 10 is complete control
# [9] = Preemergence, Rate 500 g/ha, scale of 0 to 10 where 0 is no effect and 10 is complete control
# [10] = Rate 62 g/ha, Postemergence, scale of 0 to 10 where 0 is no effect and 10 is complete control
# [11] = Rate 125 g/ha, Preemergence, scale of 0 to 10 where 0 is no effect and 10 is complete control
# [12] = Rate 500 g/ha, Postemergence, scale 0 to 10, 0 no effect, 10 complete control
# [13] = Rate 62 g/ha, headed Pre-emergence (flood test species), scale 0 to 10 (0 no effect, 10 complete control)
# [14] = Rate 125 g/ha, Pre-emergence, flood test species, scale 0 to 10 where 0 is no effect and 10 is complete control
# [15] = Rate 250 g/ha, Pre-emergence, flood-test species, scale 0 to 10, 0 is no effect, 10 is complete control
# [16] = Rate 500 g/ha, Pre-emergence, flood test species, scale 0 to 10 (0 no effect, 10 complete control)
# [17] = Rate 16 g/ha, 0 no injury, 100 complete control
# [18] = Rate 32 g/ha, 0 no injury, 100 complete control
# [19] = Rate 64 g/ha, 0 no injury, 100 complete control
# [20] = Rate 125 g/ha, 0 no injury, 100 complete control
compound,measurement,setting,value
CC(C)N(C(=O)n1oc(=O)n(C2CC2)c1=O)c1ccc(F)cc1 [Compound 242],"Plant response rating, Blackgrass",blackgrass; [3],55
same,"Plant response rating, Blackgrass",blackgrass; [4],70
same,"Plant response rating, Blackgrass",blackgrass; [5],95
same,Blackgrass plant response rating (0 to 100 scale),blackgrass; Rate 250 g/ha,100
same,"Plant response rating, Blackgrass",blackgrass; [6],98
same,Wheat plant response rating,wheat; [7],5
same,Wheat plant response rating,wheat; [8],9
same,"Plant response rating, Wheat",wheat; [9],10
same,Wheat plant response rating,wheat; [10],4
same,Wheat plant response rating,wheat; [11],7
same,Wheat plant response rating,wheat; [12],8
same,Rice plant response rating,rice; [13],0
same,Rice plant response rating,rice; [14],0
same,Rice plant response rating,rice; [15],0
same,Rice plant response rating,rice; [16],0
same,"Plant response rating, Alexandergrass",Alexandergrass; [17],65
same,"Plant response rating, Alexandergrass",Alexandergrass; [18],85
same,"Plant response rating, Alexandergrass",Alexandergrass; [19],100
same,"Plant response rating, Alexandergrass",Alexandergrass; [20],98
same,"Plant response rating, Alexandergrass",Alexandergrass; Rate 250 g/ha,100
same,"Plant response rating, Alexandergrass",Alexandergrass; Rate 500 g/ha,100
same,"Plant response rating, Wheat (winter)","winter wheat [1]; Rate 31 g/ha, 0 no effect, 100 complete control",55
same,"Plant response rating, Wheat (winter)",winter wheat [1]; Rate 62 g/ha,65
same,"Plant response rating, Wheat (winter)","winter wheat [1]; Rate 125 g/ha, 0 is no effect, 100 is complete control",10
same,Wheat (winter) plant response rating,"winter wheat [1]; Rate 250 g/ha, 0 to 100 scale where 0 is no effect and 100 is complete control",10
same,"Plant response rating, Wheat (winter)","winter wheat [1]; Rate 500 g/ha, 0 is no effect, 100 is complete control",90
same,"Plant response rating, I. Ryegrass",Italian ryegrass; [3],65
same,"Plant response rating, I. Ryegrass",Italian ryegrass; [4],70
same,"Plant response rating, I. Ryegrass",Italian ryegrass; [5],95
same,I. Ryegrass plant response rating (0 to 100 scale),Italian ryegrass; Rate 250 g/ha,98
same,"Plant response rating, I. Ryegrass",Italian ryegrass; [6],100
same,"Plant response rating, Wheat (winter)",winter wheat [2]; [3],30
same,"Plant response rating, Wheat (winter)",winter wheat [2]; [4],40
same,"Plant response rating, Wheat (winter)",winter wheat [2]; [5],65
same,Wheat (winter) plant response rating (0 to 100 scale),winter wheat [2]; Rate 250 g/ha,55
same,"Plant response rating, Wheat (winter)",winter wheat [2]; [6],95
same,"Plant response rating, Green foxtail",green foxtail; [3],50
same,"Plant response rating, Green foxtail",green foxtail; [5],70
same,Green foxtail plant response rating (0 to 100 scale),green foxtail; Rate 250 g/ha,98
same,"Plant response rating, Green foxtail",green foxtail; [6],100
same,Bedstraw plant response rating,bedstraw; [7],0
same,Bedstraw plant response rating,bedstraw; [8],9
same,"Plant response rating, Bedstraw",bedstraw; [9],10
same,Bedstraw plant response rating,bedstraw; [10],2
same,Bedstraw plant response rating,"bedstraw; Rate 125 g/ha, Postemergence, scale 0 to 10",5
same,Bedstraw plant response rating,bedstraw; [11],7
same,"Plant response rating (0 to 10; 0 is no effect, 10 is complete control), Bedstraw","bedstraw; Rate 250 g/ha, Postemergence",7
same,Bedstraw plant response rating,bedstraw; [12],8
same,"Plant response rating, Dallisgrass",dallisgrass; [17],65
same,"Plant response rating, Dallisgrass",dallisgrass; [18],85
same,"Plant response rating, Dallisgrass",dallisgrass; [19],98
same,"Plant response rating, Dallisgrass",dallisgrass; [20],98
same,"Plant response rating, Dallisgrass",dallisgrass; Rate 250 g/ha,100
same,"Plant response rating, Dallisgrass",dallisgrass; Rate 500 g/ha,100
same,"Plant response rating, Barley (winter)",winter barley; [3],30
same,"Plant response rating, Barley (winter)",winter barley; [4],30
same,"Plant response rating, Barley (winter)",winter barley; [5],40
same,Barley (winter) plant response rating (0 to 100 scale),winter barley; Rate 250 g/ha,60
same,"Plant response rating, Barley (winter)",winter barley; [6],85
same,"Plant response rating, Wild oat",wild oat; [3],50
same,"Plant response rating, Wild oat",wild oat; [4],60
same,"Plant response rating, Wild oat",wild oat; [5],60
same,Wild oat plant response rating (0 to 100 scale),wild oat; Rate 250 g/ha,98
same,"Plant response rating, Wild oat",wild oat; [6],100
same,Ducksalad plant response rating,duck salad; [13],0
same,Ducksalad plant response rating,duck salad; [14],0
same,Ducksalad plant response rating,duck salad; [15],0
same,Ducksalad plant response rating,duck salad; [16],0
same,"Plant response rating, C. ragweed",common ragweed; [17],100
same,"Plant response rating, C. ragweed",common ragweed; [18],100
same,"Plant response rating, C. ragweed",common ragweed; [19],100
same,"Plant response rating, C. ragweed",common ragweed; [20],100
same,"Plant response rating, C. ragweed",common ragweed; Rate 250 g/ha,100
same,"Plant response rating, C. ragweed",common ragweed; Rate 500 g/ha,100
same,"Plant response rating, Goosegrass",goosegrass; [17],75
same,"Plant response rating, Goosegrass",goosegrass; [18],85
same,"Plant response rating, Goosegrass",goosegrass; [19],95
same,"Plant response rating, Goosegrass",goosegrass; [20],100
same,"Plant response rating, Goosegrass",goosegrass; Rate 250 g/ha,100
same,"Plant response rating, Goosegrass",goosegrass; Rate 500 g/ha,100
